Test results: ChEMBL document CHEMBL1148934, “Antitubercular sesterterpenes from the Thai sponge Brachiaster sp” (J Nat Prod, 2004)
In brackets after ≈: the same amount, converted by molar mass.

Tests used:
MCF7 [1] = assay: Cytotoxicity against human MCF7 cells by SRB assay; type: functional, cell-based
HeLa [2] = assay: Cytotoxicity against human HeLa cells by SRB assay; type: functional, cell-based
[3] = tested on: Mycobacterium tuberculosis; assay: Antitubercular activity against Mycobacterium tuberculosis H37Ra ATCC 25177 after 4 days by microtiter plate alamar blue technique; type: functional, organism-based; conditions: 96 h
HT-29 [4] = assay: Cytotoxicity against human HT29 cells by SRB assay; type: functional, cell-based
KB [5] = assay: Cytotoxicity against human KB cells by SRB assay; type: functional, cell-based
HeLa [6] = assay: Cytotoxicity against human HeLa cells at 10 uM by SRB assay; type: functional
HT-29 [7] = assay: Cytotoxicity against human HT29 cells at 10 uM by SRB assay; type: functional
KB [8] = assay: Cytotoxicity against human KB cells at 10 uM by SRB assay; type: functional
MCF7 [9] = assay: Cytotoxicity against human MCF7 cells at 10 uM by SRB assay; type: functional
[10] = tested on: Mycobacterium tuberculosis; assay: Antimycobacterial activity against Mycobacterium tuberculosis H37Rv; type: functional

Structure (SMILES): CC1(C)CCC[C@]2(C)[C@H]3C[C@@H](O)[C@]4(C)[C@H]5COC(=O)C5=CC[C@H]4[C@]3(C)CC[C@@H]12
- IC50 (MCF7 [1]): 320 nM
- IC50 (HeLa [2]): 1990 nM
- MIC [3]: 16 µM (≈ 6.19 µg/mL)
- IC50 (HT-29 [4]): 910 nM
- IC50 (KB [5]): 750 nM

Structure (SMILES): CC(=O)OCC1=CC(=O)O[C@@H]1C/C=C(\CC/C=C(\C)CCC1=C(C)CCCC1(C)C)COC(C)=O
- IC50 (MCF7 [1]): 9340 nM
- Activity (HeLa [6]): 80%
- MIC [3]: 51 µM (≈ 24.8 µg/mL)
- Activity (HT-29 [7]): 80%
- Activity (KB [8]): 80%

Structure (SMILES): CC(=O)O[C@@H]1C[C@@H]2[C@@]3(C)CCCC(C)(C)[C@@H]3CC[C@@]2(C)[C@@H]2CC=C3C(=O)OC[C@@H]3[C@@]12C
- IC50 (HeLa [2]): 5490 nM
- IC50 [3]: 117000 nM
- IC50 (HT-29 [4]): 2340 nM
- IC50 (KB [5]): 3010 nM

Structure (SMILES): CC(=O)O[C@@H]1OC(=O)C=C1[C@H]1CC=C(CC/C=C(\C)CCC2=C(C)CCCC2(C)C)[C@H](O)O1
- IC50 (MCF7 [1]): 260 nM
- IC50 (HeLa [2]): 1680 nM
- MIC [3]: 7 µM (≈ 3.21 µg/mL)
- IC50 (HT-29 [4]): 760 nM
- IC50 (KB [5]): 630 nM

Structure (SMILES): CC(=O)O[C@@H]1OC(=O)C2=CC[C@H]3[C@]4(C)CC[C@H]5C(C)(C)CCC[C@]5(C)[C@H]4CC[C@]3(C)[C@H]21
- Activity (HeLa [6]): 80%
- MIC [3]: 4 µM (≈ 1.71 µg/mL)
- Activity (HT-29 [7]): 80%
- Activity (KB [8]): 80%
- Activity (MCF7 [9]): 80%

Structure (SMILES): CC(=O)OCC1=CC(=O)O[C@@H]1C/C=C(/CC/C=C(\C)CCC1=C(C)CCCC1(C)C)COC(C)=O
- IC50 (MCF7 [1]): 5990 nM
- Activity (HeLa [6]): 80%
- MIC [3]: 26 µM (≈ 12.7 µg/mL)
- Activity (HT-29 [7]): 80%
- Activity (KB [8]): 80%

Structure (SMILES): CC(=O)O[C@@H]1OC=C2[C@@H](OC(C)=O)C[C@H]3[C@]4(C)CC[C@H]5C(C)(C)CCC[C@]5(C)[C@H]4C[C@@H](OC(C)=O)[C@]3(C)[C@H]21 [HETERONEMIN ACETATE]
- IC50 (MCF7 [1]): 6450 nM
- Activity (HeLa [6]): 80%
- MIC [3]: 6 µM
- Activity (HT-29 [7]): 80%
- Activity (KB [8]): 80%

Structure (SMILES): CC(=O)O[C@@H]1OC=C2[C@@H](OC(C)=O)C[C@H]3[C@]4(C)CC[C@H]5C(C)(C)CCC[C@]5(C)[C@H]4C[C@@H](O)[C@]3(C)[C@H]21 [HETERONEMIN]
- IC50 (MCF7 [1]): 290 nM
- IC50 (HeLa [2]): 450 nM
- MIC [3]: 3 µM (≈ 1.47 µg/mL)
- IC50 (HT-29 [4]): 390 nM
- MIC [10]: 6.25 µg/mL (≈ 12.8 µM)
- IC50 (KB [5]): 370 nM

Structure (SMILES): NNC(=O)c1ccncc1 [ISONIAZID]
- MIC [3]: 0.29 µM (≈ 0.0398 µg/mL)

Structure (SMILES): NC[C@H]1O[C@H](O[C@H]2[C@H](O)[C@@H](O[C@H]3O[C@H](CO)[C@@H](O)[C@H](N)[C@H]3O)[C@H](N)C[C@@H]2N)[C@H](O)[C@@H](O)[C@@H]1O [KANAMYCIN]
- MIC [3]: 3.5 µM (≈ 1.7 µg/mL)
